Measurements published in publication PMC10657973 (Journal of Pharmaceutical Analysis, 2023).
“Also recorded” adds a separate entry of the source.

Columns and labels:
serum protein = assay: Protein-binding ratio of UTs in rat serum; assay type: in vitro ADME, rats; details: ultrafiltration at 37 °C
OAT1 [1] = molecular target: T1, OAT1 (Homo sapiens, UniProt Q4U2R8); assay: Uptake of UTs in HEK293T-OAT1 cells; assay type: cell-based; details: 100 μM, 30 min
T1 sequence (Q4U2R8 1-563): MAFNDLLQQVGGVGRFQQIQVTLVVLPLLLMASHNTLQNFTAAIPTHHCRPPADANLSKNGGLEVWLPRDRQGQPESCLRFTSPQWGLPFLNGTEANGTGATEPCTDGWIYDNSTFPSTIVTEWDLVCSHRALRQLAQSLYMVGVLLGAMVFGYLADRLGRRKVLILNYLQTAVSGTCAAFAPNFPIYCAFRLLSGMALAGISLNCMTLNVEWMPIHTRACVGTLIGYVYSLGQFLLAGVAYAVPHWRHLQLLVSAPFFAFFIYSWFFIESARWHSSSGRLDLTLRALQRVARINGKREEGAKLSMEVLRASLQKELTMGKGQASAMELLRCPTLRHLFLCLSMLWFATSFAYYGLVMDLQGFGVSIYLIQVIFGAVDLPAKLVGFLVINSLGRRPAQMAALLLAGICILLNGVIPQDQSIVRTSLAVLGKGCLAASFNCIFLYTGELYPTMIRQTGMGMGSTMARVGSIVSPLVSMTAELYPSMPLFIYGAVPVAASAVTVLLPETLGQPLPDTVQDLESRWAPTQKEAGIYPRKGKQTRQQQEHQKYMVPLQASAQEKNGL

OAT3 = molecular target: T2, OAT3 (Homo sapiens, UniProt Q8TCC7); assay: Uptake of UTs in HEK293T-OAT3 cells; assay type: cell-based; details: 100 μM, 30 min
T2 sequence (Q8TCC7 1-542): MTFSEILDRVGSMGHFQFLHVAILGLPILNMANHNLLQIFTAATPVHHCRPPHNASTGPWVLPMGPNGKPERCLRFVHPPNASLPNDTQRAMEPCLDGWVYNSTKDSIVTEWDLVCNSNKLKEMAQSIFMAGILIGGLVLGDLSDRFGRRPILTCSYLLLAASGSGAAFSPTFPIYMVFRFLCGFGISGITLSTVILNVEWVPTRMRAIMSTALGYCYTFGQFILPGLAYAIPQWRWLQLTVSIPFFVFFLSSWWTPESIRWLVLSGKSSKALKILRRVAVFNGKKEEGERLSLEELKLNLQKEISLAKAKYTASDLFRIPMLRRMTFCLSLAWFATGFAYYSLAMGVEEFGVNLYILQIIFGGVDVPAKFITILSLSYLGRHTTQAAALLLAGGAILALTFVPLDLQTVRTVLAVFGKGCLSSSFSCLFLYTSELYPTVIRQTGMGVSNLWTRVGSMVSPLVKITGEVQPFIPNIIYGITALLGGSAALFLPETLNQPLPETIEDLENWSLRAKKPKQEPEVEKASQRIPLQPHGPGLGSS

MRP4 [2] = assay: Intracellular accumulation of UTs in MRP4-overexpressing cells; assay type: cell-based, human; details: 100 μM, 30 min
OAT1 [3] = molecular target: T1, OAT1; assay: Transport kinetics of UTs in HEK293T-OAT1 cells; assay type: cell-based; details: HEK293T-OAT1/3 cells, 100 μM
OAT4 = assay: Specificity: uptake in OAT4-overexpressing cells; assay type: cell-based
rMRP4 [4] = assay type: in vivo, rats
rOAT1/3 = assay: rOAT1/3−/− rat experiment; assay type: in vivo, rats; details: rat, in vivo
rMRP4 [5] = assay type: in vivo, rats; details: rat, in vivo
[6] = assay type: in vivo, rats; details: rats
[7] = system: OAT1/3 and MRP4 double-transfected MDCK cells
rOATs = rOATs inhibition experiment
[8] = system: OAT1/3-MRP4 double-transfected MDCK cells; assay: Transcellular transport in OAT1/3-MRP4 double-transfected MDCK cells; assay type: cell-based
MRP2 = details: read-out: affinity (Km) for MRP2; cited from earlier work
MRP4 [9] = details: read-out: affinity (Km) for MRP4; cited from earlier work
[10] = Correlation between biomarkers and cefmetazole pharmacokinetics in rats; assay type: in vivo
[11] = cited from earlier work
[12] = substrate: CCCc1oc(CCC(=O)O)c(C(=O)O)c1C; assay: Transport kinetics of UTs in HEK293T-OAT3 cells; assay type: cell-based, human; details: other: HEK293T-OAT3, Michaelis-Menten
[13] = substrate: O=C(O)c1cc(=O)c2ccccc2[nH]1; assay: Transport kinetics of UTs in HEK293T-OAT3 cells; assay type: cell-based, human; details: other: HEK293T-OAT3, Michaelis-Menten
[14] = substrate: CCCc1oc(CCC(=O)O)c(C(=O)O)c1C; assay: Transport kinetics of UTs in HEK293T-OAT1 cells; assay type: cell-based, human; details: other: HEK293T-OAT1, Michaelis-Menten
[15] = substrate: O=C(O)c1cc(=O)c2ccccc2[nH]1; assay: Transport kinetics of UTs in HEK293T-OAT1 cells; assay type: cell-based, human; details: other: HEK293T-OAT1, Michaelis-Menten
[16] = PROB 30, 60, 120 mg/kg oral, 7 days

For CCCc1oc(CCC(=O)O)c(C(=O)O)c1C [CMPF, 3-carboxy-4-methyl-5-propyl-2-furanpropanoic acid], the “Protein-binding ratio, Normal rats in vivo (%) (n = 6)” value (serum protein) was > 90%, the “uptake at 4 °C in OAT1-overexpressing cells vs control” value (OAT1 [1]; 4 °C) was “not significantly different” and the “uptake of HSA-bound UT in OAT1-overexpressing cells vs control cells” value (OAT1 [1]; 37 °C, with HSA) was “dramatically increased”. For the same molecule, the “uptake of free UT in OAT1-overexpressing cells vs control cells” value (OAT1 [1]; 37 °C, without HSA) was “dramatically increased; also recorded: markedly higher”, the “uptake at 4 °C in OAT3-overexpressing cells vs control” value (OAT3; 4 °C) was “not significantly different” and the “uptake of HSA-bound UT in OAT3-overexpressing cells vs control cells” value (OAT3; 37 °C, with HSA) was “dramatically increased”. For the same molecule, the “uptake of free UT in OAT3-overexpressing cells vs control cells” value (OAT3; 37 °C, without HSA) was “dramatically increased; also recorded: markedly higher”, the “uptake at 4 °C in MRP4-overexpressing cells vs control” value (MRP4 [2]; 4 °C) was “not significantly different” and the “intracellular accumulation in MRP4-overexpressing cells vs control cells” value (MRP4 [2]; 37 °C, 4 mM ATP) was “significantly decreased”. For the same molecule, the linear uptake time (OAT1 [3]) was 0 to 10 min, the “transport mediated by OAT4 / uptake in OAT4-overexpressing cells vs control” value (OAT4) was “significantly higher” and the “levels in renal tissues in rats treated with MK-571 vs control” value (rMRP4 [4]; MK-571 5, 10, 20 mg/kg oral, 7 days) was “significantly increased”. The “cumulative urinary excretion in rats treated with MK-571 vs control” value (rMRP4 [4]; MK-571 (CMPF effect at 20 mg/kg)) was “significantly decreased”, the “renal clearance rate in rOAT1/3−/− rats vs WT” value (rOAT1/3) was “significantly decreased” and the “renal tissue uptake ratio in rOAT1/3−/− rats vs WT” value (rOAT1/3) was “significantly decreased”. The “serum levels in rOAT1/3−/− rats vs WT” value (rOAT1/3) was “significantly increased”, the “renal clearance rate in rMRP4−/− rats vs WT” value (rMRP4 [5]) was “did not change significantly” and the “renal tissue concentration in rMRP4−/− rats vs WT” value (rMRP4 [5]) was “significantly elevated”. The “serum levels in rMRP4−/− rats vs WT” value (rMRP4 [5]) was “did not change significantly”, the “renal excretion with MK-571 vs control” value ([6]; MK-571 20 mg/kg) was “did not affect” and the “renal excretion with PROB vs control” value ([6]; PROB 60 mg/kg) was “did not affect”. The “uptake at 4 °C in OAT1/3 and MRP4 double-transfected cells” value ([7]; 4 °C) was “no significant difference”, the “uptake at 37 °C in OAT1-MRP4 cells vs double control cells” value ([7]; 37 °C) was “significantly increased” and the “uptake at 37 °C in OAT3-MRP4 cells vs double control cells” value ([7]; 37 °C) was “significantly increased”. For the same molecule, the “cumulative urinary excretion in rats treated with PROB vs control” value (rOATs; 12 h urine) was “no significant effects”, the “renal uptake ratios in rats treated with PROB vs control” value (rOATs; [16]) was “decreased” and the “serum levels in rats treated with PROB vs control” value (rOATs; [16]) was “increased”.

In the case of CN(C)C(=O)CCSC(SCCC(=O)O)c1cccc(/C=C/c2ccc3ccc(Cl)cc3n2)c1 (stereo not drawn) [MK-571, reference compound], the “effect on B to A transmembrane transport of CMPF” value [8] is reported as “substantially inhibited”, the “effect on B−A transport of kynurenic acid” value [8] is reported as “significantly reduced” and the “serum creatinine and urea nitrogen levels” value (rMRP4 [4]; rats, 20 mg/kg oral, 7 days) is reported as “significantly increased”. The “pathological changes in the kidneys” value (rMRP4 [4]; rats, different doses, H&E staining) was “No significant pathological changes”.

For Nc1ccc(C(=O)NCC(=O)O)cc1 [aminohippuric acid], the Km (MRP2) is listed as 2 mM and the Km (MRP4 [9]) is listed as 160 µM.

In the case of CO[C@@]1(NC(=O)CSCC#N)C(=O)N2C(C(=O)O)=C(CSc3nnnn3C)CS[C@@H]21 [cefmetazole, reference compound], the “plasma concentrations in rats treated with PROB” value ([10]; PROB 60 and 120 mg/kg 7 days, cefmetazole 100 mg/kg i.v.) is listed as “increased”, the “cmax in WT rats given 100 mg/kg vs KO rats given 60 mg/kg” value ([10]; i.p., 7 consecutive days) is listed as “close to” and the renal tubular secretion [11] is listed as “about 40%”.

B1: OAT3 (Homo sapiens) (protein)
chain: T2 sequence (Q8TCC7 1-542)
B1 showed a Km [12] of 447.1 µM, a Vmax [12] of 133.2 pmol/mg protein/min and a Km [13] of 382.2 µM.

B2: OAT1 (Homo sapiens) (protein)
chain: T1 sequence (Q4U2R8 1-563)
In the case of B2, the Km [14] is reported as 1,483 μM, the Vmax [14] is reported as 323 pmol/mg protein/min and the Km [15] is reported as 496.7 µM.
